Reference: patent publication US20050171358A1 (priority 2002, published 2005)

Columns and labels:
[1] = system: Pyricularia oryzae; format: in vivo; settings: 200 ppm spray on rice (Koshihikari, 3 leaf stage), inoculated next day; lesion numbers on third leaves after 7 days in green house, graded by Table 5
[2] = system: Colletotrichum lagenarium; settings: 200 ppm spray on cucumber (3 leaf stage), inoculated next day; lesion numbers on first and second leaves after 7 days in green house, graded by Table 5

| SMILES | Evaluation (effect for rice blast) [1] | Evaluation (effect for cucumber anthracnose) [2] |
| --- | --- | --- |
| CCc1ccc(C(=O)NCc2cc(CC(C)C)no2)cc1 [III-258, N-[(3-isobutyl-5-isoxazolyl)methyl]-4-ethylbenzamide] | 5 (0) | 4 (1˜5) |
| COc1ccc(C(=O)NCc2cc(-c3nc4ccccc4s3)no2)cc1 [III-224, N-{[3-(benzo[d]thiazol-2-yl)-5-isoxazolyl]methyl}-4-methoxybenzamide] | 2 (11˜20) | 2 (11˜20) |
| Cc1ccc(-c2cc(CNC(=O)c3cc(Cl)nc(Cl)c3)on2)cc1 [III-240, N-{[3-(4-tolyl)-5-isoxazolyl]methyl}-2,6-dichloropyridine-4-carboxamide] | 2 (11˜20) | 2 (11˜20) |
| Cc1cc(CNC(=O)NC2CCCCC2)on1 [II-108, 3-(3-methyl-5-isoxazolyl)methyl-1-cyclohexylurea] | 1 (21˜41) | 2 (11˜20) |
| Cc1ccc(C(=O)NCc2cc(-c3ccccc3)no2)cc1 [III-107, N-[(3-phenyl-5-isoxazolyl)methyl]-4-methylbenzamide] | 5 (0) | 5 (0) |
| CC(C)(NC(=O)NCc1cc(-c2ccccc2)no1)c1ccccc1 [I-45] | 4 (1˜5) | 4 (1˜5) |
| O=C(NCc1cc(Cc2ccccc2)no1)NC1CCCCC1 [II-13, 1-[(3-benzyl-5-isoxazolyl)methyl]-3-cyclohexylurea] | 5 (0) | 5 (0) |
| O=C(NCc1cc(Cc2ccccc2)no1)C1CCCCC1 [IV-4, (3-benzyl-5-isoxazolyl)methylaminocarbonylcyclohexane] | 4 (1˜5) | 4 (1˜5) |
| O=C(NCc1cc(COc2ccccc2)no1)C1CCCCC1 [IV-121, N-[(3-phenoxymethyl-5-isoxazolyl)methyl)cyclohexanecarboxamide] | 4 (1˜5) | 4 (1˜5) |
| COc1ccc(-c2cc(CNC(=O)c3ccc(C)cc3)on2)cc1OC [III-68, N-{[3-(3,4-dimethoxyphenyl)-5-isoxazolyl]methyl}-4-methylbenzamide] | 5 (0) | 5 (0) |
| O=C(NCc1cc(-c2ccccc2)no1)c1ccccc1Cl [III-122, N-[(3-phenyl-5-isoxazolyl)methyl]-2-chlorobenzamide] | 4 (1˜5) | 4 (1˜5) |
| COc1ccc(C(=O)NCc2cc(COc3ccc(C)cc3)no2)cc1 [IV-50, N-{[3-(4-methylphenyl)oxymethyl-5-isoxazolyl]methyl}-4-methoxybenzamide] | 5 (0) | 4 (1˜5) |
| COc1ccc(C(=O)NCc2cc(COc3ccc(C#N)cc3)no2)cc1 [IV-53, N-([3-(4-cyanophenyl)oxymethyl-5-isoxazolyl]methyl}-4-methoxybenzamide] | 5 (0) | 5 (0) |
| Cc1ccc(C(=O)NCc2cc(-c3ccc([S+](C)[O-])cc3)no2)cc1 (stereo not drawn) [III-27, N-{[3-(4-methanesulfinylphenyl)-5-isoxazolyl]methyl}-4-methylbenzamide] | 5 (0) | 5 (0) |
| CO/N=C/c1ccc(OCc2cc(CNC(=O)c3ccc(OC)cc3)on2)cc1 [IV-75] | 2 (11˜20) | 3 (6˜10) |
| Cc1ccc(C(=O)NCc2cc(-c3ccc(C)c(F)c3)no2)cc1 [III-73, N-{[3-(3-fluoro-4-methylphenyl)-5-isoxazolyl]methyl}-4-methylbenzamide] | 5 (0) | 4 (1˜5) |
| O=C(NCc1cc(Cc2ccccc2)no1)NC1CCCC1 [II-14, 1-[(3-benzyl-5-isoxazolyl)methyl]-3-cyclopentylurea] | 4 (1˜5) | 5 (0) |
| COc1ccc(C(=O)NCc2cc(C(=O)Nc3ccccc3Cl)no2)cc1 [IV-96, N-{[3-(2-chlorophenyl)aminocarbonyl-5-isoxazolyl]methyl}-4-methoxybenzamide] | 4 (1˜5) | 4 (1˜5) |
| COc1ccc(-c2cc(CNC(=O)c3ccc(C)cc3)on2)c(F)c1 [III-74, N-{[3-(2-fluoro-4-methoxyphenyl)-5-isoxazolyl]methyl}-4-methylbenzamide] | 5 (0) | 5 (0) |
| Cc1ccc(C(=O)NCc2cc(/C=C/c3ccccc3)no2)cc1 [III-210, N-{[3-(2-phenylethenyl)-5-isoxazolyl)methyl]-4-methylbenzamide] | 5 (0) | 5 (0) |
| COc1ccc(C(=O)NCc2cc(C(=O)NC3CCCC3)no2)cc1 [IV-120, N-[(3-cyclopentylaminocarbonyl-5-isoxazolyl)methyl]-4-methoxybenzamide] | 3 (6˜10) | 2 (11˜20) |
| COc1ccc(C(=O)NCc2cc(CC(C)C)no2)cc1 [III-229, N-[(3-isobutyl-5-isoxazolyl)methyl]-4-methoxybenzamide] | 5 (0) | 5 (0) |
| CC(C)(C)c1ccc(C(=O)NCc2cc(-c3ccccc3)no2)cc1 [III-108, N-[(3-phenyl-5-isoxazolyl)methyl]-4-t-butylbenzamide] | 2 (11˜20) | 3 (6˜10) |
| COc1ccc(-c2cc(CNC(=O)Oc3ccccc3)on2)cc1 [I-26, phenyl{[3-(4-methoxyphenyl)-5-isoxazolyl]methyl}carbamate] | 5 (0) | 5 (0) |
| CC(C)Cc1cc(CNC(=O)Cc2ccccc2)on1 [I-64, N-[(3-isobutyl-5-isoxazolyl)methyl]phenylacetamide] | 2 (11˜20) | 3 (6˜10) |
| O=C(NCc1cc(-c2ccccc2)no1)c1cccs1 [III-177, (3-phenyl-5-isoxazolyl)methylaminocarbonyl-2-thiophene] | 4 (1˜5) | 4 (1˜5) |
| O=C(NCc1cc(-c2ccccc2)no1)c1ccc2c(c1)OCO2 [III-180, 5-(3-phenyl-5-isoxazolyl)methylaminocarbonyl-1,3-benzodioxol] | 5 (0) | 5 (0) |
| COc1ccc(C(=O)NCc2cc(/C=C/C(C)C)no2)cc1 | 4 (1˜5) | 4 (1˜5) |
| O=C(NCc1cc(-c2cccc(Cl)c2)no1)Oc1ccccc1 [I-29, phenyl{[3-(3-chlorophenyl)-5-isoxazolyl)methyl]carbamate] | 5 (0) | 5 (0) |
| O=C(NCc1cc(-c2ccccc2)no1)c1ccc(C(F)(F)F)cc1 [III-130, N-[(3-phenyl-5-isoxazolyl)methyl]-4-trifluoromethylbenzamide] | 4 (1˜5) | 4 (1˜5) |
